Source: patent US7417060B2, “Aminoalcohol derivatives” (Astellas Pharma Inc., priority 2003, dated 2008)

Tested on: intravesical pressure (IVP) increase induced by carbachol
Test: Effect on the increase in intravesical pressure induced by carbachol in anesthetized dog
Type: in vivo
Conditions: anesthetized female Beagle dogs; test compound 0.010 mg/kg intravenously 30 minutes before carbachol (1.8 μg/kg)
Experimental: Effect on the Increase in Intravesical Pressure Induced by Carbachol in Anesthetized Dog
Female Beagle dogs weighing 8.0-15.0 kg were fasted for 24 hours and maintained under halothane anesthesia. A 12F Foley catheter was lubricated with water soluble jelly, inserted into the urethral orifice and advanced approximately 10 cm until the balloon tip was placed well inside the bladder. The balloon was then inflated with 5 ml of room air and catheter slowly withdrawn just part the first resistance that was felt at the bladder neck. Urine was completely drained out through the catheter, and 30 ml of biological saline was infused. The catheter was connected to pressure transducer, and intravesical pressure (IVP) was continuously recorded. The test compound was administered intravenously at 30 minutes before the administration of carbachol (1.8 μg/kg). Percent inhibition of IVP increase by test compound was calculated by dividing IVPa (IVP increase induced by carbachol after test compound administration) by IVPb (IVP increase induced by carbachol just before test compound administration).

Structure (SMILES)	Percent inhibition of IVP increase [%]
CC(C)Sc1cc(-c2ccc(CCN[C@@H](C)[C@H](O)c3ccccc3)cc2)ccc1C(=O)O.Cl [Test Compound (1), 4′-[2-[[(1S,2R)-2-Hydroxy-1-methyl-2-phenylethyl]-amino]ethyl]-3-(isopropylthio)-4-biphenylcarboxylic acid hydrochloride]	77
CC(C)Cc1cc(-c2ccc(CCN[C@@H](C)[C@H](O)c3ccccc3)cc2)ccc1C(=O)NS(C)(=O)=O.Cl [Test Compound (2), 4′-[2-[[(1S,2R)-2-Hydroxy-1-methyl-2-phenylethyl]-amino]ethyl]-3-isobutyl-N-(methylsulfonyl)-4-biphenylcarboxamide hydrochloride]	76
CS(=O)(=O)NC(=O)c1ccc(-c2ccc(CCNC[C@H](O)c3cccnc3)cc2)cc1OC1CCCCC1.Cl.Cl [Test Compound (3), 3-(Cyclohexyloxy)-4′-[2-[[(2R)-2-hydroxy-2-(3-pyridyl)ethyl]amino]ethyl]-N-(methylsulfonyl)-4-biphenylcarboxamide dihydrochloride]	89
